From US20250243208A1, “BICYCLIC HETEROCYCLES AS MRGPRX2 ANTAGONISTS” (Incyte Corporation, priority 2024, published 2025)

Tests used:
[1] = target: T1, MRGPRX2 (Homo sapiens, UniProt Q96LB1); test: MRGPRX2 β-Arrestin recruitment assay (PathHunter CHO-K1); assay type: cell-based; set-up: host or cells: PathHunter CHO-K1; settings: PathHunter CHO-K1 cells, agonist Cortistatin 14 0.25 μM
T1 sequence (Q96LB1 1-330): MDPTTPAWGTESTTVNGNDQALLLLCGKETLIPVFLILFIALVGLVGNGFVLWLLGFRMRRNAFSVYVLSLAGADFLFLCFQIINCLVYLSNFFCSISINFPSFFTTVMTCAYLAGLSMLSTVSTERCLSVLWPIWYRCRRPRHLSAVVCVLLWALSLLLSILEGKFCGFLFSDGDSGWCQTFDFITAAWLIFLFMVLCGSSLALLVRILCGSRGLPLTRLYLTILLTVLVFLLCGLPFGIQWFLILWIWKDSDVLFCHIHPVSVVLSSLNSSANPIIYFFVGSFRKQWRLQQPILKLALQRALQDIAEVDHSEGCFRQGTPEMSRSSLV
Description: Example C: MRGPRX2 β-Arrestin Assay
This assay measures compound inhibition of β-Arrestin recruitment, which is part of the G protein-independent pathway that results from the ligand-activated GPCR phosphorylation by specific GPCR kinases. The PathHunter CHO-K1 MRPGRX2 B-Arrestin Cell line stably expressing ProLink tagged MRGPRX2 and Enzyme Acceptor Tagged B-Arrestin was purchased from Eurofins DiscoverX, (Fremont, CA).
The cells were maintained in culture medium from the Europhins DiscoverX Cell Culture Kit-107 which includes FBS, hygromycin B and G418. For the assay, the cells were harvested and were resuspended with Cell Plating Reagent 2 (Eurofins DiscoverX). Cells were added 10000 cells in 25 μL/well to a 384-well black cell culture plate (Greiner VWR, Radnor, PA) which contained 125 nL/well of compound at a selected serially diluted concentration range or DMSO. The plate was incubated at 37° C. with 5% CO2 for 1 h. 2 μL/well of agonist Cortistatin 14 was diluted in Protein Dilution Buffer, (Eurofins DiscoverX) for a final concentration of 0.25 μM, was added and the plate was incubated at 37° C. with 5% CO2 for 90 min. 14 μL/well of Detection Reagent Mix (PathHunter Detection Kit, Eurofins DiscoverX) was added to the plates and further incubated for 1 h in the dark. Plates were read on the PHERAstar microplate reader (BMG Labtech Cary, NC) measuring luminescence 0.1 to 1 s per well. Data was normalized using DMSO only wells and wells with high concentration of reference antagonist as controls. Compound IC50 curves were globally fitted with 3- or 4-parameter Hill equation in a Genedata Screener (Genedata Basel, Switzerland).

[2] = target: T1, MRGPRX2; test: potency comparison of separated isomers (assay not stated); settings: compared with the other separated diastereomer/enantiomer
[3] = target: T1, MRGPRX2; test: MRGPRX2 IP1 HTRF assay; assay type: cell-based; set-up: host or cells: CHO-K1; settings: CHO-K1 cells, agonist Cortistatin 14 1 μM, IP1 accumulation
Description: Example B: MRGPRX2 IP1 HTRF Assay
This assay measures compound inhibition of myo-Inositol 1 phosphate (IP1) accumulation in CHO-K1 cells. Chinese hamster ovary (CHO-K1) cells stably expressing human MRGPRX2 were purchased from GenScript (Piscataway, NJ).
For the HTRF IP1 determination, an IP-One GqKit (Perkin Elmer Cisbio, Waltham, MA), which includes all reagents and buffers in this protocol, was used. The cells were maintained in culture medium (Ham's F-12K) containing 10% (v/v) FBS, and 200 μg/mL Zeocin. For the assay, the cells were harvested and resuspended in culture medium with 2% FBS and without Zeocin, then were passed through a 40 μm filter. Cells were added at 20000 cells in a 5 μL/well to a 384-well white small volume cell culture plate (Greiner VWR, Radnor, PA) which contained 50 nL/well of test compound serially diluted at a selected concentration range in DMSO. 5 μL/well of prepared 2× Stimulation Buffer2 was then added to plates and was incubated at 37° C. with 5% CO2 for 1 h. 5 μL/well of agonist Cortistatin 14 (Bio-TechneR&D Systems, Minneapolis, MN) in 1× Stimulation Buffer 2, for a 1 μM final concentration, was then added to plates and incubated at 37° C. with 5% CO2 for 1 h. 6 μL/well of 1:20 diluted Detection Reagent Mix (d2 and Cryptate) was added to the plates and incubated for 1 h in the dark. Plates were read on the PHERAstar microplate reader (BMG Labtech Cary, NC) to determine the HTRF ratio of the acceptor and donor emission signals. The IP1 concentrations were calculated from a standard curve following the IP-One GQ kit instructions. Wells with DMSO only and wells with high concentration of reference antagonist were used as controls for normalization. Compound IC50 curves were globally fitted with 3- or 4-parameter Hill equation in a Genedata Screener (Genedata Basel, Switzerland).

| Structure (SMILES) | IC50 [1] [µM] | relative potency of the separated isomer [2] | IC50 [3] [µM] |
| --- | --- | --- | --- |
| CC1(O)CN(C(CNc2cc(C(F)(F)F)nc3cc(C(F)(F)F)nn23)c2ccc(F)cc2)C1 (single isomer, unassigned) [Example 35, 1-(2-((2,5-Bis(trifluoromethyl)pyrazolo[1,5-a]pyrimidin-7-yl)amino)-1-(4-fluorophenyl)ethyl)-3-methylazetidin-3-ol] | 0.0001 to 0.1 | active |  |
| CC(CNc1cc(C(F)(F)F)nc2cc(C(F)(F)F)nn12)(c1ccccc1)C1CN(c2n[nH]c(N)n2)C1 (racemic) [Example 9, N-(2-(1-(5-Amino-1H-1,2,4-triazol-3-yl)azetidin-3-yl)-2-phenylpropyl)-2,5-bis(trifluoromethyl)pyrazolo[1,5-a]pyrimidin-7-amine] | 0.0001 to 0.1 |  | 0.0001 to 0.1 |
| NC(=O)N1CCC(C(CNc2cc(C(F)(F)F)nc3cc(C(F)(F)F)nn23)c2ccc(F)cc2)C1 (single isomer, unassigned) [Example 20, 3-(2-((2,5-Bis(trifluoromethyl)pyrazolo[1,5-a]pyrimidin-7-yl)amino)-1-(4-fluorophenyl)ethyl)pyrrolidine-1-carboxamide] | 0.0001 to 0.1 | more potent |  |
| O=C1NC2(CCO1)CN(C(CNc1cc(C(F)(F)F)nc3cc(C(F)(F)F)nn13)c1ccc(F)cc1)C2 (single isomer, unassigned) [Example 25, 2-(2-((2,5-Bis(trifluoromethyl)pyrazolo[1,5-a]pyrimidin-7-yl)amino)-1-(4-fluorophenyl)ethyl)-7-oxa-2,5-diazaspiro[3.5]nonan-6-one] | 0.0001 to 0.1 | more potent |  |
| CC(CNc1cc(C(F)(F)F)nc2cc(C(F)(F)F)nn12)(c1ccccc1)C1CN(C(N)=O)C1 (racemic) [Example 10, 3-(1-((2,5-Bis(trifluoromethyl)pyrazolo[1,5-a]pyrimidin-7-yl)amino)-2-phenylpropan-2-yl)azetidine-1-carboxamide] | 0.0001 to 0.1 |  | 0.0001 to 0.1 |
| NC(=O)N1CCC(C(CO)(CNc2cc(C(F)(F)F)nc3cc(C(F)(F)F)nn23)c2ccc(F)cc2)C1 (single isomer, unassigned) [Example 18, 3-(1-((2,5-Bis(trifluoromethyl)pyrazolo[1,5-a]pyrimidin-7-yl)amino)-2-(4-fluorophenyl)-3-hydroxypropan-2-yl)pyrrolidine-1-carboxamide] | 0.0001 to 0.1 |  | 0.0001 to 0.1 |
| C[C@](CNc1cc(C(F)(F)F)nc2cc(C(F)(F)F)nn12)(c1ccc(F)cc1)C1CN(C(N)=O)C1 (single isomer, unassigned) [Example 6, 3-(1-((2,5-Bis(trifluoromethyl)pyrazolo[1,5-a]pyrimidin-7-yl)amino)-2-(4-fluorophenyl)propan-2-yl)azetidine-1-carboxamide] | 0.0001 to 0.1 |  | 0.0001 to 0.1 |
| [2H]C([2H])([2H])NC(=O)C1CN(C(CNc2cc(C(F)(F)F)nc3cc(C(F)(F)F)nn23)c2ccc(F)cc2)C1 (single isomer, unassigned) [Example 26, 1-(2-((2,5-Bis(trifluoromethyl)pyrazolo[1,5-a]pyrimidin-7-yl)amino)-1-(4-fluorophenyl)ethyl)-N-(methyl-d3)azetidine-3-carboxamide] | 0.0001 to 0.1 | more potent |  |
| CC(CNc1cc(C(F)F)nc2cc(C(F)(F)F)nn12)(c1ccccc1)C1CN(S(N)(=O)=O)C1 (racemic) [Example 7, 3-(1-((5-(Difluoromethyl)-2-(trifluoromethyl)pyrazolo[1,5-a]pyrimidin-7-yl)amino)-2-phenylpropan-2-yl)azetidine-1-sulfonamide] | 0.0001 to 0.1 |  | 0.0001 to 0.1 |
| CC(CNc1cc(C(F)(F)F)nc2cc(C(F)(F)F)nn12)(c1ccc(F)cc1)C1CCN(CC(N)=O)C1 (single isomer, unassigned) [Example 17, 2-(3-(1-((2,5-Bis(trifluoromethyl)pyrazolo[1,5-a]pyrimidin-7-yl)amino)-2-(4-fluorophenyl)propan-2-yl)pyrrolidin-1-yl)acetamide] | 0.0001 to 0.1 | more potent | 0.0001 to 0.1 |

Continued, values first:

| IC50 [1] [µM] | relative potency of the separated isomer [2] | IC50 [3] [µM] | Structure (SMILES) |
| --- | --- | --- | --- |
| 0.0001 to 0.1 |  | 0.0001 to 0.1 | CC(CNc1cc(C(F)(F)F)nc2cc(C(F)(F)F)nn12)(c1ccccc1)C1CNC1 (racemic) [Example 11, N-(2-(Azetidin-3-yl)-2-phenylpropyl)-2,5-bis(trifluoromethyl)pyrazolo[1,5-a]pyrimidin-7-amine] |
| 0.0001 to 0.1 | active |  | O=C1NCC2(CN(C(CNc3cc(C(F)(F)F)nc4cc(C(F)(F)F)nn34)c3ccc(F)cc3)C2)N1 (single isomer, unassigned) [Example 37, 2-(2-((2,5-Bis(trifluoromethyl)pyrazolo[1,5-a]pyrimidin-7-yl)amino)-1-(4-fluorophenyl)ethyl)-2,5,7-triazaspiro[3.4]octan-6-one] |
|  |  | 0.0001 to 0.1 | C[C@](CNc1cc(C(F)(F)F)nc2cc(C(F)(F)F)nn12)(c1ccc(F)cc1)C1CN(C(N)=O)C1 (single isomer, unassigned) [Example 5, 3-(1-((2,5-Bis(trifluoromethyl)pyrazolo[1,5-a]pyrimidin-7-yl)amino)-2-(4-fluorophenyl)propan-2-yl)azetidine-1-carboxamide] |
| 0.0001 to 0.1 |  | 0.0001 to 0.1 | CC(CNc1cc(C(F)F)nc2cc(C(F)(F)F)nn12)(c1ccccc1)C1CN(C(N)=O)C1 (racemic) [Example 8, 3-(1-((5-(Difluoromethyl)-2-(trifluoromethyl)pyrazolo[1,5-a]pyrimidin-7-yl)amino)-2-phenylpropan-2-yl)azetidine-1-carboxamide] |
| 0.0001 to 0.1 | more potent | 0.0001 to 0.1 | CC(CNc1cc(C(F)(F)F)nc2cc(C(F)(F)F)nn12)(c1ccc(F)cc1)C1CCN(C(=O)NCCO)C1 (single isomer, unassigned) [Example 16, 3-(1-((2,5-Bis(trifluoromethyl)pyrazolo[1,5-a]pyrimidin-7-yl)amino)-2-(4-fluorophenyl)propan-2-yl)-N-(2-hydroxyethyl)pyrrolidine-1-carboxamide] |
| 0.0001 to 0.1 | active |  | O=C1CC2(CN1)CN(C(CNc1cc(C(F)(F)F)nc3cc(C(F)(F)F)nn13)c1ccc(F)cc1)C2 (single isomer, unassigned) [Example 36, 2-(2-((2,5-Bis(trifluoromethyl)pyrazolo[1,5-a]pyrimidin-7-yl)amino)-1-(4-fluorophenyl)ethyl)-2,6-diazaspiro[3.4]octan-7-one] |
| 0.0001 to 0.1 |  |  | CCC(CNc1cc(C(F)(F)F)nc2cc(C(F)(F)F)nn12)(c1ccc(F)cc1)C1CN(C(N)=O)C1 (racemic) [Example 1, 3-(1-((2,5-Bis(trifluoromethyl)pyrazolo[1,5-a]pyrimidin-7-yl)amino)-2-(4-fluorophenyl)butan-2-yl)azetidine-1-carboxamide] |
